This passage reports TGI results from PubChem BioAssay (NCI).

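Growth conditions: 96-well plates. Treatment: test compound, 48 hours, 5 concentrations. Analysis: linear interpolation between bracketing concentrations; unreached endpoints set to highest concentration. Definition used: TGI = concentration required for complete inhibition of growth.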 Bounds are passed on as bounds.

Among the test systems are OVCAR-5 ovarian; TK-10 renal; SK-MEL-5 melanoma; DU-145 prostate; HCT-15 colon; NCI-H226 lung; NCI/ADR-RES ovarian; BT-549 breast; A549 NSCLC; SN12C renal.
Holding throughout (test): NCI-60 cell line screen, 48 h

For `COc1cc2c(/C=C3/C(=O)Nc4ccccc43)c(Cl)[nH]c2cc1C`, the TGI is 23.7 µM with OVCAR-5 ovarian; 21.7 µM in the experiment on TK-10 renal; 1.42 µM in the experiment on SK-MEL-5 melanoma; 1.08 µM in the experiment with DU-145 prostate; 11 µM in the experiment on HCT-15 colon; over 100 µM with NCI-H226 lung. Also, the TGI with NCI/ADR-RES ovarian came to 0.894 µM; in the experiment with BT-549 breast, 17.1 µM; with A549 NSCLC, 22.7 µM; in the experiment with SN12C renal, 13.1 µM.
On to `Cc1nn(-c2cc(Cl)ccc2[N+](=O)[O-])c(C)c1Cl`, for which the TGI in the experiment on OVCAR-5 ovarian, with TK-10 renal, in the experiment on SK-MEL-5 melanoma, in the experiment with DU-145 prostate, in the experiment on HCT-15 colon and in the experiment on NCI-H226 lung was over 100 µM each time. The TGI in the experiment with NCI/ADR-RES ovarian, with BT-549 breast, with A549 NSCLC and in the experiment on SN12C renal was over 100 µM in each case.
Take `CC1S/C(=N/c2nnc(-c3ccccc3)o2)NC1=O` (stereo not given): the TGI with OVCAR-5 ovarian, with TK-10 renal, in the experiment on SK-MEL-5 melanoma, in the experiment with DU-145 prostate, in the experiment with HCT-15 colon and in the experiment on NCI-H226 lung was over 100 µM in each case. Moreover, the TGI in the experiment with NCI/ADR-RES ovarian, in the experiment on BT-549 breast, with A549 NSCLC and in the experiment with SN12C renal was over 100 µM throughout.
Take `CCOc1cc(-c2nc3ccccn3c2/N=C/c2cc(Br)ccc2O)ccc1O`: the TGI with OVCAR-5 ovarian was over 100 µM; in the experiment on TK-10 renal it was 48.7 µM; with SK-MEL-5 melanoma, over 100 µM; in the experiment on DU-145 prostate, 70.3 µM; in the experiment with HCT-15 colon it was over 100 µM; in the experiment on NCI-H226 lung, over 100 µM. The TGI was 93 µM in the experiment with NCI/ADR-RES ovarian, over 100 µM in the experiment with BT-549 breast, over 100 µM in the experiment on A549 NSCLC and over 100 µM in the experiment on SN12C renal.
For the compound `CNC(=O)N(CCC#N)[C@H]1CCCC[C@@H]1N(C(=O)NC)c1ccccc1`, the TGI in the experiment on OVCAR-5 ovarian, in the experiment with TK-10 renal, in the experiment with SK-MEL-5 melanoma, in the experiment with DU-145 prostate, with HCT-15 colon and in the experiment with NCI-H226 lung was over 100 µM in each case. Besides, the TGI in the experiment on NCI/ADR-RES ovarian, with BT-549 breast, in the experiment with A549 NSCLC and in the experiment with SN12C renal was over 100 µM each time.
Turning to `O=C1C=CC(=O)c2c(O)c(NCCc3ccc(O)cc3)c(Cl)c(O)c21`, the TGI with OVCAR-5 ovarian, in the experiment with TK-10 renal, in the experiment with SK-MEL-5 melanoma, with DU-145 prostate, in the experiment on HCT-15 colon and in the experiment with NCI-H226 lung was over 10 µM in each case. For the same compound, the TGI with NCI/ADR-RES ovarian, in the experiment on BT-549 breast, with A549 NSCLC and in the experiment on SN12C renal was over 10 µM in each case.
Take `Brc1ccc2c(-c3csc(-c4c[nH]c5ccc(Br)cc45)n3)c[nH]c2c1`: the TGI in the experiment with OVCAR-5 ovarian amounted to 7.54 µM; in the experiment on TK-10 renal it was 15.2 µM; in the experiment with SK-MEL-5 melanoma, 12.8 µM; with DU-145 prostate, 15.5 µM; in the experiment with HCT-15 colon, 14.5 µM; in the experiment with NCI-H226 lung, 32.1 µM. Besides, the TGI amounted to 21.2 µM with NCI/ADR-RES ovarian, 27.7 µM in the experiment with BT-549 breast, 19 µM in the experiment with A549 NSCLC and 18.9 µM with SN12C renal.
As for `CCNC(=O)C1CCCN1C(=O)C(CCCN=C(N)N)NC(=O)C(CC(C)C)NC(=O)C(Cc1c[nH]c2ccccc12)NC(=O)C(Cc1ccc(O)cc1)NC(=O)C(CO)NC(=O)C(Cc1c[nH]c2ccccc12)NC(=O)C(Cc1cnc[nH]1)NC(=O)C1CCC(=O)N1` (stereo not given), the TGI in the experiment on OVCAR-5 ovarian, in the experiment with TK-10 renal, with SK-MEL-5 melanoma, in the experiment on DU-145 prostate, in the experiment with HCT-15 colon and in the experiment with NCI-H226 lung was over 100 µM each time. Also, the TGI in the experiment on NCI/ADR-RES ovarian, with BT-549 breast, with A549 NSCLC and with SN12C renal was over 100 µM throughout.
As to `CCOn1c(C2(CC3CCN(C(=O)c4ccccc4)CC3)OCCO2)cc2ccccc21`, the TGI in the experiment on OVCAR-5 ovarian was found to be 37.4 µM; in the experiment on TK-10 renal, 24.7 µM; in the experiment with SK-MEL-5 melanoma, 24.6 µM; in the experiment on DU-145 prostate, 31.9 µM; with HCT-15 colon, 42.3 µM; in the experiment with NCI-H226 lung it was 20.4 µM. Besides, the TGI with NCI/ADR-RES ovarian came out at 33.9 µM; in the experiment with BT-549 breast it was 34.5 µM; in the experiment on A549 NSCLC, 32.4 µM; in the experiment with SN12C renal, 30.9 µM.
In the case of `CC(C)(C)c1cc(/C=C(\C#N)C(=O)NCCO)cc(C(C)(C)C)c1O`, the TGI in the experiment with OVCAR-5 ovarian was 62.8 µM; in the experiment with TK-10 renal, 60.9 µM; with SK-MEL-5 melanoma, 28.1 µM; with DU-145 prostate it was over 100 µM; in the experiment on HCT-15 colon, 58.6 µM; with NCI-H226 lung it was 40.7 µM. The TGI with NCI/ADR-RES ovarian is 75.3 µM; in the experiment on BT-549 breast it was 71.1 µM; with A549 NSCLC, over 100 µM; in the experiment with SN12C renal it was 51.6 µM.
With `COc1ccc2c(c1)CC1=C(O2)c2ccc(OC)cc2OC1`, the TGI with OVCAR-5 ovarian is over 100 µM; in the experiment with TK-10 renal, 46.3 µM; in the experiment with SK-MEL-5 melanoma, 42.4 µM; in the experiment with DU-145 prostate, over 100 µM; with HCT-15 colon, 36.8 µM; in the experiment with NCI-H226 lung, over 100 µM. The TGI in the experiment with NCI/ADR-RES ovarian was over 100 µM; in the experiment on BT-549 breast, 38.8 µM; in the experiment with A549 NSCLC, over 100 µM; with SN12C renal, 44.3 µM.
With `Cc1cn([C@@H]2C[C@H]2CO)c(=O)[nH]c1=O`, the TGI with OVCAR-5 ovarian, in the experiment with TK-10 renal, with SK-MEL-5 melanoma, with DU-145 prostate, in the experiment on HCT-15 colon and in the experiment on NCI-H226 lung was over 100 µM throughout. Further, the TGI in the experiment with NCI/ADR-RES ovarian, in the experiment on BT-549 breast, with A549 NSCLC and in the experiment on SN12C renal was over 100 µM throughout.
With `CCOC(=O)C(NC(=O)CC(C)C)(N1CCN(c2cc3c(cc2F)c(=O)c(C(=O)O)cn3C2CC2)CC1)C(F)(F)F` (stereo not given), the TGI was 32.8 µM with OVCAR-5 ovarian; 72.9 µM in the experiment on TK-10 renal; 25.4 µM in the experiment on SK-MEL-5 melanoma; over 100 µM in the experiment with DU-145 prostate; 22.3 µM in the experiment on HCT-15 colon; 46.3 µM in the experiment with NCI-H226 lung. Further, the TGI is 52.2 µM with NCI/ADR-RES ovarian, 39.1 µM in the experiment on BT-549 breast, over 100 µM in the experiment with A549 NSCLC and over 100 µM in the experiment on SN12C renal.
Regarding `O=C(CSc1n[nH]c(=O)[nH]c1=O)NNC(=O)c1cccc2nc3ccccc3nc12`, the TGI in the experiment with OVCAR-5 ovarian is over 100 µM; in the experiment on TK-10 renal, over 100 µM; with SK-MEL-5 melanoma, 45 µM; with DU-145 prostate, over 100 µM; with HCT-15 colon, over 100 µM; with NCI-H226 lung, over 100 µM. Besides, the TGI was over 100 µM in the experiment on NCI/ADR-RES ovarian, 83.7 µM in the experiment on BT-549 breast, over 100 µM in the experiment on A549 NSCLC and over 100 µM in the experiment on SN12C renal.
In the case of `NC(N)=NS(=O)(=O)c1ccc(NC(=O)c2ccc3nc4ccccc4c(Nc4ccc(S(=O)(=O)N=C(N)N)cc4)c3c2)cc1`, the TGI in the experiment with OVCAR-5 ovarian, with TK-10 renal, with SK-MEL-5 melanoma, in the experiment on DU-145 prostate, in the experiment with HCT-15 colon and in the experiment with NCI-H226 lung was over 100 µM throughout. In addition, the TGI with NCI/ADR-RES ovarian, with BT-549 breast, with A549 NSCLC and with SN12C renal was over 100 µM each time.
With `COC(=O)c1ccc(C=Nc2ccc(S(N)(=O)=O)cc2)cc1`, the TGI in the experiment with OVCAR-5 ovarian, with TK-10 renal, with SK-MEL-5 melanoma, in the experiment on DU-145 prostate, in the experiment on HCT-15 colon and in the experiment on NCI-H226 lung was over 100 µM throughout. For the same compound, the TGI in the experiment on NCI/ADR-RES ovarian, with BT-549 breast, in the experiment on A549 NSCLC and with SN12C renal was over 100 µM in each case.
For the compound `Cn1c([O-])nc(-n2cc[n+](C)c2)cc1=O`, the TGI in the experiment with OVCAR-5 ovarian, in the experiment with TK-10 renal, in the experiment on SK-MEL-5 melanoma, in the experiment on DU-145 prostate, with HCT-15 colon and with NCI-H226 lung was over 100 µM throughout. For the same compound, the TGI with NCI/ADR-RES ovarian, with BT-549 breast, in the experiment with A549 NSCLC and in the experiment on SN12C renal was over 100 µM in each case.
As to `Brc1ccc2c(-c3csc(-c4c[nH]c5cc(Br)ccc45)n3)c[nH]c2c1`, the TGI with OVCAR-5 ovarian is over 90.2 µM; with TK-10 renal it was over 100 µM; with SK-MEL-5 melanoma, over 100 µM; in the experiment on DU-145 prostate it was 47.3 µM; in the experiment with HCT-15 colon it was over 89.9 µM; with NCI-H226 lung, 99.7 µM. Besides, the TGI in the experiment on NCI/ADR-RES ovarian was over 87 µM; in the experiment with BT-549 breast, over 100 µM; in the experiment with A549 NSCLC, over 50.7 µM; with SN12C renal it was over 100 µM.
As for `CC1(CNCc2ccccc2)CC(CCc2ccccc2)N(C(=O)c2ccc([N+](=O)[O-])cc2)C1Cc1ccc(O)cc1` (stereo not given), the TGI in the experiment on OVCAR-5 ovarian amounted to 34 µM; in the experiment on TK-10 renal it was 30.9 µM; in the experiment with SK-MEL-5 melanoma, 17.3 µM; with DU-145 prostate, 28.5 µM; in the experiment with HCT-15 colon it was 26.3 µM; with NCI-H226 lung, 24.1 µM. Besides, the TGI in the experiment on NCI/ADR-RES ovarian amounted to 36 µM; in the experiment with BT-549 breast, 31.3 µM; with A549 NSCLC, 24.8 µM; with SN12C renal, 20.8 µM.
As for `Brc1cc2nn(-c3ccccc3)nc2c2nonc12`, the TGI in the experiment with OVCAR-5 ovarian, in the experiment with TK-10 renal, in the experiment with SK-MEL-5 melanoma, in the experiment with DU-145 prostate, with HCT-15 colon and with NCI-H226 lung was over 100 µM throughout. Further, the TGI in the experiment on NCI/ADR-RES ovarian, with BT-549 breast, in the experiment with A549 NSCLC and in the experiment with SN12C renal was over 100 µM in each case.
